Patent US7862815B2, “Methods for inhibiting angiogenesis with inhibitors of proadrenomedullin N-terminal 20 peptide (PAMP)” (The United States of America as represented by the …, priority 2002, dated 2011)

Legend:
[1] = tested on: nude mice; assay: Directed in vivo Angiogenesis Assay (DIVAA), Example 1; conditions: for FITC-dextran fluorescence of implants (angiogenesis): mean ± standard deviation of five implants
Procedure: Silicone tubes (0.15 mm outside diameter, New Age Industries, Southampton, Pa.) are cut to 1 cm in length, and one end of each tube is closed with liquid silicone and dried for 24 hours, then autoclaved. A dilution of test substances is prepared in matrigel in sterile cold Eppendorf tubes. Tubes are filled with a Hamilton syringe. Nude mice are anesthetized, and a pocket is made in the dorsal skin of each animal. The tubes are then implanted with the open end first, and the wounds are then sealed.
After nine to eleven days, the tail veins are injected with FITC-dextran to visualize the blood vessels, and the dye is allowed to distribute throughout the vasculature for about 20 minutes. Mice are then euthanized with CO2 and the skin pockets are removed.
Skin is then dissected, keeping the vessels near the mouth of the tube. The matrigel is then displaced from the tube, incubated at 37° C. in the presence of dispase, then vortexed, centrifuged, and matrigel aliquots are transferred into 96-well plates for fluorescent emission. Fluorescence is read in a fluorimeter.
This example provides a description of use of the Directed in vivo Angiogenesis Assay (DIVAA; see Martinez et al., J. Natl. Cancer Inst. 2002; 94:1226-1237) to measure the angiogenic potential of PAMP in comparison to known angiogenesis factors.
Implants were prepared as follows: Silicone tubes (0.15 mm outside diameter, New Age Industries, Southampton, Pa.) were cut to 1 cm in length. One end of each tube was closed with liquid silicone and dried for 24 hours to allow fumes to diffuse out. Tubes were then autoclaved.
A dilution of test substances was prepared in matrigel in sterile cold Eppendorf tubes. A stock of 25× was prepared to avoid diluting the matrigel too much. Tubes were filled with a Hamilton syringe. All the material was kept sterile and cold. Each tube required 18-20 μl. The matrigel was allowed to solidify at 37° C. for at least 30 minutes.
Nude mice were anesthetized with Ketamine and Xylazine (1:4 ratio), 50 μl per mouse, […]. A pocket was made in the dorsal skin of each animal with scissors. The tubes were implanted with the open end first. The wounds were then sealed with surgical clips. Mice were kept warm until they recovered consciousness. Mice were then maintained for nine to eleven days.
Mice were placed under a heating lamp to dilate their tail veins. Tail veins were injected with 25 mg/ml FITC-dextran (Sigma), 100 μl/mouse. After about 20 minutes, the dye had been distributed. Mice were then euthanized with CO2 and the skin pockets were removed and kept in a PBS-wet cloth.
Skin was then dissected out, keeping the vessels near the mouth of the tube. The tube was placed in an Eppendorf tube containing 300 μdispase (Collaborative Biomedical Products). Then the matrigel was displaced from the tube; these were frozen until they were needed later.
Matrigels were thawed and incubated at 37° C. for one hour, then vortexed, centrifuged, and 100 μl was transferred into a 96-well plate for fluorescent emission (black sides). Excitation for FITC was 485 nm. Emission was 535 nm. Fluorescence was read in a fluorometer.

[2] = tested on: aortic rings of 13 day-old chicken embryos; assay: Chick embryo aortic arch assay; assay type: cell-based; conditions: for sprouting of new vessels versus control: 1 nM peptide
Procedure: The chick embryo aortic arch assay is an ex vivo angiogenesis assay that was performed as previously described (Isaacs, et al., J. Biol. Chem., 16; 277(33):29936-44, 2002; Auerbach et al., Clin. Chem. 49, 32-40, 2003). Briefly, aortic rings of approximately 0.8 mm in length were prepared from the five aortic arches of 13 day-old chicken embryos (Truslow Farms) and the soft connective tissue of the adventitia layer was carefully removed with tweezers. Each aortic ring was placed in the center of a well in a 48-well plate and covered with 10 μl matrigel (BD Biosciences). After the matrigel solidified, 300 μl of growth factor-free human endothelial-SFM basal growth medium (Invitrogen) containing the proper concentration of the test substances were added to each well. The plates were kept in a humid incubator at 37° C. in 5% CO2 for 24-36 hours. Microvessels sprouting from each aortic ring were photographed in an inverted microscope and the area covered by the newly formed capillaries was estimated by image analysis.

[3] = tested on: Human dermal microvascular endothelial cells; assay: Calcium measurements (ATP-induced calcium flux); assay type: cell-based; conditions: 10 nM PAMP, 1 mM ATP
Procedure: Human dermal microvascular endothelial cells were obtained from Cell Applications, Inc. and cultured in 96-well plates at 1.0×10^5 cells per well. The cells were loaded for 60 minutes at room temperature with the fluorescent dye FLIPR (Molecular Devices) and then transferred to the FlexStation II (Molecular Devices) for analysis. The test compounds were prepared in another plate at a concentration of 5× and were added to the proper wells by the robotic arm of the FlexStation II. Fluorescence was measured every five seconds in each well and recorded. One mM ATP (Sigma) was used as a calcium agonist (Lau et al., Life Sci. 73, 20 19-2028, 2003).

[4] = tested on: human endothelial cells; assay: Cord formation assay on matrigel; assay type: cell-based; conditions: overnight incubation on matrigel, FIG. 6C
Procedure: Human endothelial cells were seeded at 2.0×10^5 cells per well over a solid layer of matrigel covering the bottom of a 24-well plate in the presence or absence of the test peptides as described (Nam et al., Phytother. Res. 17, 107-111). After an overnight incubation, the tubular structures were photographed (three pictures per well) and the number of knots per photographic field were counted as a measure of lattice complexity.

**Q.** How did the “FITC-dextran fluorescence of implants (angiogenesis)” value (“FITC-dextran fluorescence” below) ([1]; 10 pM peptide in matrigel) turn out when Adrenomedullin [AM] was run?
**A.** 1033.2 ± 343 arbitrary fluorescence units

**Q.** And the “FITC-dextran fluorescence” value ([1]; 1 nM peptide in matrigel)?
**A.** 9590 ± 3164 arbitrary fluorescence units

**Q.** What about the “FITC-dextran fluorescence” value ([1]; 100 nM peptide in matrigel) of the same substance?
**A.** 13490 ± 2731 arbitrary fluorescence units

**Q.** What about the “FITC-dextran fluorescence” value ([1]; 1 fM peptide in matrigel) of the same substance?
**A.** 496 ± 275 arbitrary fluorescence units

**Q.** What about the “FITC-dextran fluorescence” value ([1]; 100 fM peptide in matrigel) of the same substance?
**A.** 787 ± 130 arbitrary fluorescence units

**Q.** And the “sprouting of new vessels versus control” value [2]?
**A.** do not promote any significant proliferation over the control

**Q.** Which results are given for “proadrenomedullin N-terminal 20 peptide (ARLDVASEFRKKWNKWALSR; listed as Homo sapiens) [PAMP, 20 amino-acid molecule originating from the post-translational processing of pre-proadrenomedullin; synthetic human, purchased from Bachem]”?
**A.** FITC-dextran fluorescence of implants (angiogenesis) ([1]; 10 pM peptide in matrigel): 7611.2 ± 3747 arbitrary fluorescence units; FITC-dextran fluorescence of implants (angiogenesis) ([1]; 1 nM peptide in matrigel): 10122.2 ± 3970 arbitrary fluorescence units; FITC-dextran fluorescence of implants (angiogenesis) ([1]; 100 nM peptide in matrigel): 22283.6 ± 6746 arbitrary fluorescence units; FITC-dextran fluorescence of implants (angiogenesis) ([1]; 1 fM peptide in matrigel): 6837.6 ± 1982 arbitrary fluorescence units; FITC-dextran fluorescence of implants (angiogenesis) ([1]; 100 fM peptide in matrigel): 7044 ± 1727 arbitrary fluorescence units; angiogenic potency compared with VEGF or AM ([1]; Table 2, FIG. 1, FIG. 2): significantly more potent; angiogenic potency relative to VEGF and bFGF ([1]; on a molar basis, based on embryonic chick aortic ring assay and DIVAA): roughly one million; sprouting of new vessels versus control [2]: larger than the control; concentrations inducing increase of sprouting blood vessels over untreated controls ([2]; chick embryo aortic rings in matrigel, 24-36 hours): ≥ 1 nM; effect on ATP-induced calcium response [3]: greatly reduced; efficiency in inducing cord formation (knots per field) [4]: modest effect

**Q.** Which results are given for “vascular endothelial growth factor [VEGF]”?
**A.** FITC-dextran fluorescence of implants (angiogenesis) ([1]; 10 pM peptide in matrigel): 863.4 ± 437 arbitrary fluorescence units; FITC-dextran fluorescence of implants (angiogenesis) ([1]; 1 nM peptide in matrigel): 8435 ± 3931 arbitrary fluorescence units; FITC-dextran fluorescence of implants (angiogenesis) ([1]; 100 nM peptide in matrigel): 11206 ± 3735 arbitrary fluorescence units; FITC-dextran fluorescence of implants (angiogenesis) ([1]; 1 fM peptide in matrigel): 1563.2 ± 1643 arbitrary fluorescence units; FITC-dextran fluorescence of implants (angiogenesis) ([1]; 100 fM peptide in matrigel): 571 ± 785 arbitrary fluorescence units; sprouting of new vessels versus control [2]: do not promote any significant proliferation over the control; efficiency in inducing cord formation (knots per field) [4]: most efficient
